Data as given in patent US8362000B2, “Azetidinyl diamides as monoacylglycerol lipase inhibitors” (Janssen Pharmaceutica NV, priority 2009, dated 2013).
Where a chain is given by its changes, count along the chain named. Where two headings read alike, the source gives them in different places.

What was measured:
[1] = biological target: T1, mutant MGL (Homo sapiens, UniProt Q99685, L169S/L176S); assay: MGL ThermoFluor assay - mutant; format: binding
T1 sequence (Q99685 1-303 L169S/L176S): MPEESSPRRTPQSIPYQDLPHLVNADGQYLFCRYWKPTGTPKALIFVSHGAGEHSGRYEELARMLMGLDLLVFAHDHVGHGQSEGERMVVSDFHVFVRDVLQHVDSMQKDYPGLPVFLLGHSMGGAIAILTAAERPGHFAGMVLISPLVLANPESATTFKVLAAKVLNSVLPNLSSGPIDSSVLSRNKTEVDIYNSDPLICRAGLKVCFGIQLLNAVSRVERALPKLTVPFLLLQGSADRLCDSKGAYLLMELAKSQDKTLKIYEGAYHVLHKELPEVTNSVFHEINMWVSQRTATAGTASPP

[2] = biological target: T2, purified wild type MGL (wt-MGLL 6H-11-313) (Homo sapiens, UniProt Q99685)
T2 sequence (Q99685 1-303): T1 sequence (Q99685 1-303 L169S/L176S) with S169L, S176L

[3] = ThermoFluor concentration-response, read-out: MGL mutant ThermoFluor Kd
[4] = ThermoFluor thermal stability binding assay, read-out: MGL mutant ThermoFluor Kd
[5] = ThermoFluor, compound concentration measured by qNMR, read-out: MGL mutant ThermoFluor qKd (using qNMR conc.)
[6] = ThermoFluor, compound concentration measured by qNMR, read-out: MGL mutant ThermoFluor qKd (μM) (using qNMR conc.)
[7] = compound concentration measured by qNMR, read-out: MGL mutant ThermoFluor qKd (using qNMR conc.)

Row | SMILES | Kd [1, 3] [µM] | IC50 [2] [nM] | also measured
1 | Cc1ccc2sc(C(=O)N3CC(N4CCN(C(=O)c5cscn5)CC4)C3)c(C(F)(F)F)c2c1 [Cpd 737, 1-(1-{[5-Methyl-3-(trifluoromethyl)-1-benzothiophen-2-yl]carbonyl}azetidin-3-yl)-4-(1,3-thiazol-4-ylcarbonyl)piperazine] | 0.031 | 285 | –
2 | O=C(c1ccc(S(=O)(=O)c2cccc(C(F)(F)F)c2)cc1)N1CC(N2CCN(C(=O)c3cscn3)CC2)C1 [Cpd 738] | 0.291 | 289 | –
3 | O=C(c1ccc[nH]1)N1CCN(C2CN(C(=O)c3[nH]c4nc(C(F)(F)F)ccc4c3Br)C2)CC1 [Cpd 739] | – | 290 | Kd [1, 5]: 0.265 µM
4 | CC(C)n1c(C(F)(F)F)nc2cc(C(=O)N3CC(N4CCN(C(=O)c5nccs5)CC4)C3)ccc21 [Cpd 740] | 0.035 | 294 | –
5 | Cc1c(C(=O)N2CC(N3CCN(C(=O)c4cscn4)CC3)C2)sc2cc(F)ccc12 [Cpd 742] | – | 306 | Kd [1, 4]: 0.02 µM
6 | O=C(c1cnc2cc(Cl)c(Cl)cc2c1)N1CC(N2CCN(C(=O)c3nccs3)CC2)C1 [Cpd 743] | – | 324 | Kd [1, 5]: 0.133 µM
7 | O=C(c1nccs1)N1CC(N2CCN(C(=O)c3[nH]c4nc(C(F)(F)F)ccc4c3Br)CC2)C1 [Cpd 746] | – | 373 | Kd [1, 5]: 0.263 µM
8 | O=C(c1cc2cc(C(F)(F)F)ccc2[nH]1)N1CCN(C2CN(C(=O)c3nccs3)C2)CC1 [Cpd 747] | 0.111 | 377 | –
9 | Cc1c(C(=O)N2CCN(C3CN(C(=O)c4cc[nH]c4)C3)CC2)sc2cc(C(F)(F)F)ccc12 [Cpd 748] | 0.04 | 384 | –
10 | Cc1c(C(=O)N2CC(N3CCN(C(=O)c4cscn4)CC3)C2)sc2nc(C(F)(F)F)ccc12 [Cpd 749] | – | 387 | Kd [1, 6]: 0.036 µM
11 | Cn1c2ccccc2c2cc(C(=O)N3CC(N4CCN(C(=O)c5nccs5)CC4)C3)ccc21 [Cpd 750] | 0.025 | 395 | –
12 | Cc1c(C(=O)N2CC(N3CCN(C(=O)c4nccs4)CC3)C2)oc2ccc(F)cc12 [Cpd 751] | 1.32 | 402 | –
13 | O=C(c1ccc(Oc2ccccn2)c(Cl)c1)N1CC(N2CCN(C(=O)c3nccs3)CC2)C1 [Cpd 752] | 0.095 | 421 | –
14 | Cc1c(C(=O)N2CC(N3CCN(C(=O)c4cscn4)CC3)C2)[nH]c2ccc(Cl)cc12 [Cpd 755] | 0.328 | 468 | –
15 | O=C(c1cc2ccc(C(F)(F)F)cc2[nH]1)N1CC(N2CCN(C(=O)c3nccs3)CC2)C1 [Cpd 756] | 0.383 | 519 | –
16 | O=C(c1ccc(Oc2ccc(Cl)cn2)cc1)N1CC(N2CCN(C(=O)c3cscn3)CC2)C1 [Cpd 757] | 0.781 | 530 | –

Row | SMILES | Kd [1, 3] [µM] | IC50 [2] [nM] | also measured
17 | Cc1c(C(=O)N2CC(N3CCN(C(=O)c4cscn4)CC3)C2)n(C)c2ccc(Cl)cc12 [Cpd 758] | – | 535 | Kd [1, 5]: 0.5 µM
18 | O=C(c1ccc2c(c1)ncn2C1CCC(F)(F)CC1)N1CC(N2CCN(C(=O)c3nccs3)CC2)C1 [Cpd 759] | – | 579 | Kd [1, 7]: 0.037 µM
19 | COc1cccc2c(C)c(C(=O)N3CC(N4CCN(C(=O)c5nccs5)CC4)C3)[nH]c12 [Cpd 760] | 0.199 | 581 | –
20 | O=C(c1ccc2c(c1)ncn2CC(F)(F)F)N1CC(N2CCN(C(=O)c3nccs3)CC2)C1 [Cpd 761] | – | 583 | Kd [1, 7]: 0.092 µM
21 | O=C(c1ccc2[nH]c3c(c2c1)CCCC3)N1CC(N2CCN(C(=O)c3nccs3)CC2)C1 [Cpd 763] | 0.083 | 635 | –
22 | O=C(c1ccc(Oc2ccc(Br)cn2)cc1)N1CC(N2CCN(C(=O)c3cscn3)CC2)C1 [Cpd 765] | 3.09 | 667 | –
23 | CC1(C)Cc2cc(C(=O)N3CC(N4CCN(C(=O)c5nccs5)CC4)C3)ccc2O1 [Cpd 766] | – | 680 | Kd [1, 5]: 0.378 µM
24 | O=C(c1ccc(Oc2cc(C(F)(F)F)ccn2)cc1)N1CC(N2CCN(C(=O)c3cscn3)CC2)C1 [Cpd 769] | 2 | 725 | –
25 | O=C(c1ccc2c(c1)OCCCO2)N1CC(N2CCN(C(=O)c3nccs3)CC2)C1 [Cpd 770] | – | 740 | Kd [1, 5]: 1.13 µM
26 | O=C(c1cscn1)N1CC(N2CCN(C(=O)c3cc4cc(C(F)(F)F)ccc4[nH]3)CC2)C1 [Cpd 772] | 0.185 | 799 | –
27 | O=C(c1ccc2c(c1)CCN2C(=O)C1CC1)N1CC(N2CCN(C(=O)c3nccs3)CC2)C1 [Cpd 773] | 0.04 | 845 | –
28 | O=C(c1cscn1)N1CCN(C2CN(C(=O)c3[nH]c4nc(C(F)(F)F)ccc4c3Br)C2)CC1 [Cpd 774] | – | 848 | Kd [1, 5]: 0.254 µM
29 | O=C(c1nccs1)N1CCN(C2CN(C(=O)c3ccccc3NCc3ccccc3)C2)CC1 [Cpd 775] | – | 862 | Kd [1, 4]: 0.333 µM
30 | CC(C)(C)c1cc(C(=O)N2CC(N3CCN(C(=O)c4nccs4)CC3)C2)cc(C(C)(C)C)c1 [Cpd 776] | 0.257 | 902 | –
31 | Cc1nc2cc(C(=O)N3CC(N4CCN(C(=O)c5nccs5)CC4)C3)ccc2n1CCC(F)(F)F [Cpd 777] | – | 913 | Kd [1, 7]: 0.048 µM

Stronger by IC50 [2], values ahead:

Row | Kd [1, 3] [µM] | IC50 [2] [nM] | SMILES | also measured
32 | 0.16 | 268 | O=C(c1ccc2[nH]c(C3CCCCC3)nc2c1)N1CC(N2CCN(C(=O)c3nccs3)CC2)C1 [Cpd 735] | –
33 | 1.26 | 256 | O=C(c1ccc(Oc2cccnc2)cc1)N1CC(N2CCN(C(=O)c3nccs3)CC2)C1 [Cpd 734] | –
34 | – | 240 | Cc1c(C(=O)N2CC(N3CCN(C(=O)c4ccc[nH]4)CC3)C2)n(C)c2ccc(Cl)cc12 [Cpd 733] | Kd [1, 5]: 0.453 µM
35 | 0.002 | 239 | Cc1nc2cc(C(=O)N3CC(N4CCN(C(=O)c5nccs5)CC4)C3)ccc2n1C1CCCCC1 [Cpd 732] | –
36 | – | 238 | O=C(c1ccc(OCC(F)(F)F)cc1)N1CC(N2CCN(C(=O)c3nccs3)CC2)C1 [Cpd 730] | Kd [1, 5]: 0.146 µM
37 | 0.016 | 238 | Cc1c(C(=O)N2CCN(C3CN(C(=O)c4ccc[nH]4)C3)CC2)sc2cc(C(F)(F)F)ccc12 [Cpd 731] | –
38 | – | 236 | O=C(c1ccc2c(c1)CCN(C(=O)C1CCC(F)(F)CC1)C2)N1CC(N2CCN(C(=O)c3nccs3)CC2)C1 [Cpd 729] | Kd [1, 4]: 0.185 µM
39 | – | 219 | Cc1cc(C(=O)N2CC(N3CCN(C(=O)c4nccs4)CC3)C2)ccc1Br [Cpd 727] | Kd [1, 5]: 0.251 µM
40 | 0.127 | 218 | Cc1c(C(=O)N2CCN(C3CN(C(=O)c4cncs4)C3)CC2)sc2cc(C(F)(F)F)ccc12 [Cpd 726] | –
41 | 0.05 | 206 | O=C(c1ccc2c(c1)CCN2C(=O)c1ccccc1)N1CC(N2CCN(C(=O)c3nccs3)CC2)C1 [Cpd 724, 1-(Phenylcarbonyl)-5-({3-[4-(1,3-thiazol-2-ylcarbonyl)piperazin-1-yl]azetidin-1-yl}carbonyl)-2,3-dihydro-1H-indole] | –
42 | – | 181 | Cc1cc(C(=O)N2CC(N3CCN(C(=O)c4nccs4)CC3)C2)sc1Br [Cpd 723] | Kd [1, 6]: 0.292 µM
43 | 0.082 | 180 | O=C(c1ccc[nH]1)N1CC(N2CCN(C(=O)c3cc4cc(C(F)(F)F)ccc4s3)CC2)C1 [Cpd 722, 1-[1-(1H-Pyrrol-2-ylcarbonyl)azetidin-3-yl]-4-{[5-(trifluoromethyl)-1-benzothiophen-2-yl]carbonyl}piperazine] | –
44 | 0.347 | 173 | O=C(c1ccc(Oc2ncc(C(F)(F)F)cc2Cl)cc1)N1CC(N2CCN(C(=O)c3cscn3)CC2)C1 [Cpd 720] | –
45 | 1.14 | 173 | COc1ccc2c(C)c(C(=O)N3CC(N4CCN(C(=O)c5nccs5)CC4)C3)oc2c1 [Cpd 721] | –
46 | – | 154 | Cc1c(C(=O)N2CC(N3CCN(C(=O)c4nccs4)CC3)C2)[nH]c2ccc(F)cc12 [Cpd 719] | Kd [1, 5]: 0.119 µM
47 | – | 148 | O=C(c1ccc2nc(C(F)(F)F)sc2c1)N1CC(N2CCN(C(=O)c3nccs3)CC2)C1 [Cpd 718] | Kd [1, 4]: 0.072 µM
48 | 0.067 | 147 | O=C(c1ccc(Oc2ccc(Cl)cn2)cc1)N1CC(N2CCN(C(=O)c3nccs3)CC2)C1 [Cpd 717] | –
49 | – | 135 | O=C(c1cccc(NCc2ccccc2)c1)N1CC(N2CCN(C(=O)c3nccs3)CC2)C1 [Cpd 713] | Kd [1, 4]: 0.1 µM
50 | 0.005 | 135 | O=C(c1nccs1)N1CCN(C2CN(C(=O)c3sc4cc(F)ccc4c3C3CC3)C2)CC1 [Cpd 714, 1-{1-[(3-Cyclopropyl-6-fluoro-1-benzothiophen-2-yl)carbonyl]azetidin-3-yl}-4-(1,3-thiazol-2-ylcarbonyl)piperazine] | –
51 | 0.167 | 135 | O=C(c1ccc(Oc2cccc(F)n2)cc1)N1CC(N2CCN(C(=O)c3nccs3)CC2)C1 [Cpd 715] | –
52 | 0.028 | 127 | Cc1ccc2c(C(F)(F)F)c(C(=O)N3CC(N4CCN(C(=O)c5cscn5)CC4)C3)sc2c1 [Cpd 712, 1-(1-{[6-Methyl-3-(trifluoromethyl)-1-benzothiophen-2-yl]carbonyl}azetidin-3-yl)-4-(1,3-thiazol-4-ylcarbonyl)piperazine] | –
